Data published in US20240368150A1 (Hoffmann-La Roche Inc., priority 2021, published 2024).
pEC50: −log10 of the molar value. Where two headings read alike, the source gives them in different places.

Columns and labels:
primary human T-cells [1] = assay: Proliferation assay after 5 days (CellTiter-Glo, CD3 stimulation; PBS counter screen); format: cell-based; conditions: Homo sapiens, T-cell, 120 h, CD3 stimulation; for Emax: 5 days, normalized to reference compound A1 as stimulator control = 100%, DMSO neutral control, read-out: Emax proliferation (% activation); for pEC50: primary human T-cells, CellTiter-Glo after 5 days, EC50 of fitted sigmoidal curve, read-out: Tcell Proliferation CD3 EC50
Summary of the method: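 Read-out: CellTiter-Glo 2.0 luminescence (ATP ∝ cell number) at day 5 after compound addition. Compounds activating unstimulated cells or reducing viability flagged.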

primary human T-cells [2] = tested on: primary human T-cells

| SMILES | pEC50 (primary human T-cells [2]) | Emax (primary human T-cells [1]) | pEC50 (primary human T-cells [1]) |
| --- | --- | --- | --- |
| Cc1ccc(-c2nnc(-c3cc4c(cc3F)S(=O)(=O)C[C@H](N)C(=O)N4Cc3ccc(Cl)cc3)o2)nc1 [Example 129, (3R)-3-amino-5-[(4-chlorophenyl)methyl]-8-fluoro-7-[5-(5-methyl-2-pyridyl)-1,3,4-oxadiazol-2-yl]-1,1-dioxo-2,3-dihydro-1λ^6,5-benzothiazepin-4-one] | 5.72 | 106% | 5.85 |
| Cc1cc(C)c(-c2nnc(-c3cc4c(cc3F)S(=O)(=O)C[C@H](N)C(=O)N4Cc3ccc(Cl)cc3)o2)cn1 [Example 130, (3R)-3-amino-5-[(4-chlorophenyl)methyl]-7-[5-(4,6-dimethyl-3-pyridyl)-1,3,4-oxadiazol-2-yl]-8-fluoro-1,1-dioxo-2,3-dihydro-1λ^6,5-benzothiazepin-4-one] | 6.55 | 114% | 6.80 |
| Cc1nc(F)ccc1-c1nnc(-c2cc3c(cc2F)S(=O)(=O)C[C@H](N)C(=O)N3Cc2ccc(Cl)cc2)o1 [Example 131, (3R)-3-amino-5-[(4-chlorophenyl)methyl]-8-fluoro-7-[5-(6-fluoro-2-methyl-3-pyridyl)-1,3,4-oxadiazol-2-yl]-1,1-dioxo-2,3-dihydro-1λ^6,5-benzothiazepin-4-one] | 6.42 | 192% | 6.46 |
| COC(=O)N1CCC(OC)(c2nnc(-c3cc4c(cc3F)S(=O)(=O)C[C@H](N)C(=O)N4Cc3ccc(Cl)cc3)o2)CC1 [Example 132, methyl 4-methoxy-4-[5-[(3R)-3-amino-5-[(4-chlorophenyl)methyl]-8-fluoro-1,1,4-trioxo-2,3-dihydro-1λ^6,5-benzothiazepin-7-yl]-1,3,4-oxadiazol-2-yl]-piperidine-1-carboxylate] | 5.71 | 97% | 6.82 |
| Cc1ccc(-c2nnc(-c3cc4c(cc3F)S(=O)(=O)C[C@H](N)C(=O)N4Cc3ccc(Cl)cc3)o2)cn1 [Example 133, (3R)-3-amino-5-[(4-chlorophenyl)methyl]-8-fluoro-7-[5-(6-methyl-3-pyridyl)-1,3,4-oxadiazol-2-yl]-1,1-dioxo-2,3-dihydro-1λ^6,5-benzothiazepin-4-one] | 5.93 | 144% | 6.49 |
| N[C@H]1CS(=O)(=O)c2cc(F)c(-c3nnc(-c4ccc(F)nc4)o3)cc2N(Cc2ccc(Cl)cc2)C1=O [Example 134, (3R)-3-amino-5-[(4-chlorophenyl)methyl]-8-fluoro-7-[5-(6-fluoro-3-pyridyl)-1,3,4-oxadiazol-2-yl]-1,1-dioxo-2,3-dihydro-1λ^6,5-benzothiazepin-4-one] | 5.87 | 34% | < 5.00 |
| N[C@H]1CS(=O)(=O)c2cc(F)c(-c3nnc(-c4ccc(F)cn4)o3)cc2N(Cc2ccc(Cl)cc2)C1=O [Example 135, (3R)-3-amino-5-[(4-chlorophenyl)methyl]-8-fluoro-7-[5-(5-fluoro-2-pyridyl)-1,3,4-oxadiazol-2-yl]-1,1-dioxo-2,3-dihydro-1λ^6,5-benzothiazepin-4-one] | 5.54 | 93% | 5.98 |
| COC(=O)NC(C(F)(F)F)C(C)(C)c1nnc(-c2cc3c(cc2F)S(=O)(=O)C[C@H](N)C(=O)N3Cc2ccc(Cl)cc2)o1 (stereo partly drawn) [Example 137, methyl N-[2-methyl-2-[5-[(3R)-3-amino-5-[(4-chlorophenyl)methyl]-8-fluoro-1,1,4-trioxo-2,3-dihydro-1λ^6,5-benzothiazepin-7-yl]-1,3,4-oxadiazol-2-yl]-1-(trifluoromethyl)propyl]carbamate] | 6.31 | 90% | 6.51 |
| CN1CCC(c2nnc(-c3cc4c(cc3F)S(=O)(=O)C[C@H](N)C(=O)N4Cc3ccc(Cl)cc3)o2)C1 (stereo partly drawn) [Example 144, (3R)-3-amino-5-[(4-chlorophenyl)methyl]-8-fluoro-7-[5-(1-methylpyrrolidin-3-yl)-1,3,4-oxadiazol-2-yl]-1,1-dioxo-2,3-dihydro-1λ^6,5-benzothiazepin-4-one] | 5.74 | 106% | 5.21 |
| CN1CCCC(C)(c2nnc(-c3cc4c(cc3F)S(=O)(=O)C[C@H](N)C(=O)N4Cc3ccc(Cl)cc3)o2)C1 (stereo partly drawn) [Example 145, (3R)-3-amino-5-[(4-chlorophenyl)methyl]-7-[5-(1,3-dimethyl-3-piperidyl)-1,3,4-oxadiazol-2-yl]-8-fluoro-1,1-dioxo-2,3-dihydro-1λ^6,5-benzothiazepin-4-one] | 6.39 | 107% | 6.37 |

Continued, in another order:

| pEC50 (primary human T-cells [2]) | SMILES | Emax (primary human T-cells [1]) | pEC50 (primary human T-cells [1]) |
| --- | --- | --- | --- |
| 6.64 | CC(N)(c1nnc(-c2cc3c(cc2F)S(=O)(=O)C[C@H](N)C(=O)N3Cc2ccc(Cl)cc2)o1)C(F)(F)F (stereo partly drawn) [Example 127, (3R)-3-amino-7-[5-(1-amino-2,2,2-trifluoro-1-methyl-ethyl)-1,3,4-oxadiazol-2-yl]-5-[(4-chlorophenyl)methyl]-8-fluoro-1,1-dioxo-2,3-dihydro-1λ^6,5-benzothiazepin-4-one] | 110% | 6.74 |
| 5.91 | CC(C)(c1nnc(-c2cc3c(cc2F)S(=O)(=O)C[C@H](N)C(=O)N3Cc2ccc(Cl)cc2)o1)N1CCCC1 [Example 128, (3R)-3-amino-5-[(4-chlorophenyl)methyl]-8-fluoro-7-[5-(1-methyl-1-pyrrolidin-1-yl-ethyl)-1,3,4-oxadiazol-2-yl]-1,1-dioxo-2,3-dihydro-1λ^6,5-benzothiazepin-4-one] | 99% | 6.27 |
| 6.73 | CC(C)(c1nnc(-c2cc3c(cc2F)S(=O)(=O)C[C@H](N)C(=O)N3Cc2ccc(Cl)cc2)o1)C(N)C(F)(F)F (stereo partly drawn) [Example 136, (3R)-3-amino-7-[5-(2-amino-3,3,3-trifluoro-1,1-dimethyl-propyl)-1,3,4-oxadiazol-2-yl]-5-[(4-chlorophenyl)methyl]-8-fluoro-1,1-dioxo-2,3-dihydro-1λ^6,5-benzothiazepin-4-one] | 99% | 6.94 |
| 5.46 | CC(C)(CN1CCS(=O)(=O)CC1)c1nnc(-c2cc3c(cc2F)S(=O)(=O)C[C@H](N)C(=O)N3Cc2ccc(Cl)cc2)o1 [Example 138, (3R)-3-amino-5-[(4-chlorophenyl)methyl]-7-[5-[2-(1,1-dioxo-1,4-thiazinan-4-yl)-1,1-dimethyl-ethyl]-1,3,4-oxadiazol-2-yl]-8-fluoro-1,1-dioxo-2,3-dihydro-1λ^6,5-benzothiazepin-4-one] | 120% | 5.82 |
| 5.40 | CN(CCO)CC(C)(C)c1nnc(-c2cc3c(cc2F)S(=O)(=O)C[C@H](N)C(=O)N3Cc2ccc(Cl)cc2)o1 [Example 139, (3R)-3-amino-5-[(4-chlorophenyl)methyl]-8-fluoro-7-[5-[2-[2-hydroxyethyl(methyl)amino]-1,1-dimethyl-ethyl]-1,3,4-oxadiazol-2-yl]-1,1-dioxo-2,3-dihydro-1λ^6,5-benzothiazepin-4-one] | 102% | 5.47 |
| 5.41 | CN(C)CCC(C)(C)c1nnc(-c2cc3c(cc2F)S(=O)(=O)C[C@H](N)C(=O)N3Cc2ccc(Cl)cc2)o1 [Example 140, (3R)-3-amino-5-[(4-chlorophenyl)methyl]-7-[5-[3-(dimethylamino)-1,1-dimethyl-propyl]-1,3,4-oxadiazol-2-yl]-8-fluoro-1,1-dioxo-2,3-dihydro-1λ^6,5-benzothiazepin-4-one] | 70% | 5.27 |
| 6.59 | CC(C)(CN1CCCCC1)c1nnc(-c2cc3c(cc2F)S(=O)(=O)C[C@H](N)C(=O)N3Cc2ccc(Cl)cc2)o1 [Example 141, (3R)-3-amino-5-[(4-chlorophenyl)methyl]-7-[5-[1,1-dimethyl-2-(1-piperidyl)ethyl]-1,3,4-oxadiazol-2-yl]-8-fluoro-1,1-dioxo-2,3-dihydro-1λ^6,5-benzothiazepin-4-one] | 91% | 6.11 |
| 6.65 | CC(C)(CN1CCC(F)(F)CC1)c1nnc(-c2cc3c(cc2F)S(=O)(=O)C[C@H](N)C(=O)N3Cc2ccc(Cl)cc2)o1 [Example 142, (3R)-3-amino-5-[(4-chlorophenyl)methyl]-7-[5-[2-(4,4-difluoro-1-piperidyl)-1,1-dimethyl-ethyl]-1,3,4-oxadiazol-2-yl]-8-fluoro-1,1-dioxo-2,3-dihydro-1λ^6,5-benzothiazepin-4-one] | 66% | 6.86 |
| 5.90 | CN(C)CCCC(C)(C)c1nnc(-c2cc3c(cc2F)S(=O)(=O)C[C@H](N)C(=O)N3Cc2ccc(Cl)cc2)o1 [Example 143, (3R)-3-amino-5-[(4-chlorophenyl)methyl]-7-[5-[4-(dimethylamino)-1,1-dimethyl-butyl]-1,3,4-oxadiazol-2-yl]-8-fluoro-1,1-dioxo-2,3-dihydro-1λ^6,5-benzothiazepin-4-one] | 77% | 5.62 |
| 6.59 | CN(C)CC(C)(C)c1nnc(-c2cc3c(cc2F)S(=O)(=O)C[C@H](N)C(=O)N3Cc2ccc(Cl)cc2)o1 [Example 146, (3R)-3-amino-5-[(4-chlorophenyl)methyl]-7-[5-[2-(dimethylamino)-1,1-dimethyl-ethyl]-1,3,4-oxadiazol-2-yl]-8-fluoro-1,1-dioxo-2,3-dihydro-1λ^6,5-benzothiazepin-4-one] | 90% | 6.72 |
| 6.46 | CC(C)(CN1CCOCC1)c1nnc(-c2cc3c(cc2F)S(=O)(=O)C[C@H](N)C(=O)N3Cc2ccc(Cl)cc2)o1 [Example 147, (3R)-3-amino-5-[(4-chlorophenyl)methyl]-7-[5-(1,1-dimethyl-2-morpholino-ethyl)-1,3,4-oxadiazol-2-yl]-8-fluoro-1,1-dioxo-2,3-dihydro-1λ^6,5-benzothiazepin-4-one] | 117% | 6.46 |
